Reference: patent publication US20200062789A1, “HYDROXAMIC ACID PRODRUG COMPOUND OR SALT THEREOF, LYOPHILIZED FORMULATION, LPXC INHIBITOR, AND ANTIBACTERIAL AGENT” (FUJIFILM Toyama Chemical Co., Ltd., priority 2017, published 2020)

Experiments:
[1] = Solubility test (visual dissolution in physiological saline; saturated solubility); assay type: physicochemical; conditions: saline or isotonic, thermodynamic from solid, 1.2 mg taken, dissolution confirmed visually
Experimental: The compounds of Examples 1 and 2 were taken in an amount of 1.2 mg, physiological saline was added during stirring until dissolution could be confirmed visually, and the solubility was calculated.

[2] = Stability in 100 mmol/L tris-hydrochloric acid buffer (pH 7.4); assay type: physicochemical; conditions: compared to Example 1
[3] = tested on: Pseudomonas aeruginosa (S-2838 strain); assay: Multidrug-resistant Pseudomonas aeruginosa urinary tract infection model test in mice; assay type: in vivo; conditions: ICR female mice, 25 mg/kg once by tail vein 2 hours after infection, kidney count on the day after infection
Experimental: The mice used were ICR female SPF mice (5 weeks old: 5 mice per group). The inoculum solution was prepared by suspending a clinical isolate of Pseudomonas aeruginosa (S-2838 strain) cultured overnight at 37° C. on a Mueller-Hinton agar plate in sterile saline. The infection was induced by inoculating 0.2 mL (about 10^3 CFU/mouse) of the inoculum solution into the urethra of each mouse. The test compound was dissolved in sterile saline and given once by tail vein administration 2 hours after infection. The count of viable cells in the kidney on the day after infection was recorded and the mean value was calculated.

SMILES | solubility [1] [mg/mL] | other results
CNC(=O)[C@@](C)(C(=O)NOCOP(=O)(O)O)N(C)C(=O)c1ccc(C#Cc2ccc([C@H](O)CO)cc2)cc1 [Example 2, (((S)-2-(4-((4-((S)-1,2-dihydroxyethyl)phenyl)ethynyl)-N-methylbenzamide)-2-methyl-3-(methylamino)-3-oxopropanamide)oxy)methyl dihydrogen phosphate] | > 100 | 
CNC(=O)[C@@](C)(C(=O)NOP(=O)(O)O)N(C)C(=O)c1ccc(C#Cc2ccc([C@H](O)CO)cc2)cc1 [Example 1, (((S)-2-(4-((4-((S)-1,2-dihydroxyethyl)phenyl)ethynyl)-N-methylbenzamide)-2-methyl-3-(methylamino)-3-oxopropanamide)oxy)phosphonic acid] | > 100 | 
CNC(=O)[C@@](C)(C(=O)NOC(=O)CCC(=O)O)N(C)C(=O)c1ccc(C#Cc2ccc([C@H](O)CO)cc2)cc1 [Comparative Example 2, 4-(((S)-2-(4-((4-((S)-1,2-dihydroxyethyl)phenyl)ethynyl)-N-methylbenzamide)-2-methy 1-3-(methylamino)-3-oxopropanamide)oxy)-4-oxobutanoic acid] |  | stability in buffer (decomposition to compound A) [2]: easily decomposed
CNC(=O)[C@@](C)(C(=O)NO)N(C)C(=O)c1ccc(C#Cc2ccc([C@H](O)COP(=O)(O)O)cc2)cc1 [Comparative Example 1, (S)-2-hydroxy-2-(4-((4-(((S)-1-(hydroxyamino)-2-methyl-3-(methylamino)-1,3-dioxopropan-2-yl)(methyl)carbamoyl)phenyl)ethynyl)phenyl)ethyl phosphate] |  | decrease of count of viable cells in the kidney compared with control group [3]: < 4 log CFU/kidney
